Experimental data from PMC5940854, “Nitrothiophene carboxamides, a novel narrow spectrum antibacterial series: Mechanism of action and Efficacy” (Scientific Reports, 2018).
In brackets after ≈: the same amount, converted by molar mass. Several values for one entry are separate records, joined by “and”; a condition that tells them apart may be missing. Identical values can stand only once.

Tests used:
E. coli ∆acrB JW0451-2 = test: MIC, E. coli ∆acrB; format: cell-based; parameters: MIC ∆acrB: unit not given beside the values; conditions: for MIC: Escherichia coli, read-out: MIC acrB; for MIC ∆acrB: Table S11
Experimental: The inoculum used for all the experiments is derived from a single seed lot that is maintained as glycerol stocks at −80 °C and are sub cultured on LB plate for isolated colonies. Single colony of each strain is grown in M9 medium. All test compound stocks and dilutions are prepared in DMSO. Serial two-fold dilutions of compounds are prepared separately, with the concentrations ranging from 2 mg/mL to 0.015 mg/mL. To 150 µl (3–7 × 10^5 CFU/ml) of bacterial culture in 96 well microtitre plates, 3 μL compound from each of the dilutions is added to respective wells to obtain final concentrations ranging from 40 µg/mL to 0.3 µg/mL of the test compounds. Media control, culture control and appropriate reference drug controls are included. […] Growth is monitored by checking absorbance at 600 nm (A600). […] The samples from MIC and above concentrations are plated for MBC (Minimum Bactericidal Concentration). The samples are diluted 1:10 and plated on LB agar plates. […] The killing kinetics is determined by enumerating survivors at various time points following compound exposure. E. coli cells (~10^7 CFU/ml; A600 of 0.1) are treated with various concentrations (40 µg/mL to 0.3 µg/mL) of compounds in a 96-well microtitre plate. At various time intervals (0 to 8 h), 30 μl volumes of treated cultures are serially diluted and plated on LB agar plates. […] Data is expressed as the log10 CFU for each drug treatment.

[1] = biological target: T1, AcrB efflux pump in E. coli BW25113 (Escherichia coli, UniProt P31224); test: Nile red efflux assay (whole-cell competition); format: cell-based; conditions: for Concentration of compound required for complete inhibition of Nile red efflux (Tefflux50 >200 seconds): E. coli BW25113
T1 construct: endogenous in cells; host or cells: E. coli BW25113 (wild type)
T1 sequence (P0AE06 25-397): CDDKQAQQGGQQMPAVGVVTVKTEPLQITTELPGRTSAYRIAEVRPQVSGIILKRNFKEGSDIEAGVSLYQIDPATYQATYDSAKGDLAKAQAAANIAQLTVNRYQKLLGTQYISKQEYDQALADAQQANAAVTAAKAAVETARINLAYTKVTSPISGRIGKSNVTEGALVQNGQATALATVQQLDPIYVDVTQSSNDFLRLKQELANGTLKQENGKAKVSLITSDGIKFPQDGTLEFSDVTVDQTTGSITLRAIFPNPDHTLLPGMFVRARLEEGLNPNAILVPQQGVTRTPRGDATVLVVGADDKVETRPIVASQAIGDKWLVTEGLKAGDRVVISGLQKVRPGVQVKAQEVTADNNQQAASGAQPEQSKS
T1 sequence (P31224 whole entry): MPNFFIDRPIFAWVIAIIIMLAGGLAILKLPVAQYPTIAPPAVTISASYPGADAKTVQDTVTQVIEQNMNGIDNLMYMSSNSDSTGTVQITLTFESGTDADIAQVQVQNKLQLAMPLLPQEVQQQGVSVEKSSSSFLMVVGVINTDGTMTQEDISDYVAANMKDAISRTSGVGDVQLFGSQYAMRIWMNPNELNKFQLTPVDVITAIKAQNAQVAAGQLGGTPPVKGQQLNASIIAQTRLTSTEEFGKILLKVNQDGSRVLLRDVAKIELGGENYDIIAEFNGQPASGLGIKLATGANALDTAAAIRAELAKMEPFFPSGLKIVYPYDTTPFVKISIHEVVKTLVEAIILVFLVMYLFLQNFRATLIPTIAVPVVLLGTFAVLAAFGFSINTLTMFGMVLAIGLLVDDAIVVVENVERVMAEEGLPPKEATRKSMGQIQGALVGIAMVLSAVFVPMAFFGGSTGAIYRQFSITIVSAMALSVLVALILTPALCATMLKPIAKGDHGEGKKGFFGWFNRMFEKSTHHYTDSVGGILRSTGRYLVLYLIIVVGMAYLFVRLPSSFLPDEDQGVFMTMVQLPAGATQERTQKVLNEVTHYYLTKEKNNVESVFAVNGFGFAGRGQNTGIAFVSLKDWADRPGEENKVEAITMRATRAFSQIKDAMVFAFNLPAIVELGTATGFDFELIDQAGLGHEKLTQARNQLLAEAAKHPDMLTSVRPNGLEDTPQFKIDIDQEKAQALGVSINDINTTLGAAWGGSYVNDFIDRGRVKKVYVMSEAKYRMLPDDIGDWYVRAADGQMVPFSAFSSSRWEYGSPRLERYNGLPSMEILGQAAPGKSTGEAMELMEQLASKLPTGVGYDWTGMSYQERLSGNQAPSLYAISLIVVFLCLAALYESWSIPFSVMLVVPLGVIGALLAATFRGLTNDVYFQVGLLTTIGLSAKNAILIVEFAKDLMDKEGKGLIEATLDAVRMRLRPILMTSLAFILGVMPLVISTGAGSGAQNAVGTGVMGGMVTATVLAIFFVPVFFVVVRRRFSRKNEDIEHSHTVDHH
T1 sequence (P02930 23-493, further chain): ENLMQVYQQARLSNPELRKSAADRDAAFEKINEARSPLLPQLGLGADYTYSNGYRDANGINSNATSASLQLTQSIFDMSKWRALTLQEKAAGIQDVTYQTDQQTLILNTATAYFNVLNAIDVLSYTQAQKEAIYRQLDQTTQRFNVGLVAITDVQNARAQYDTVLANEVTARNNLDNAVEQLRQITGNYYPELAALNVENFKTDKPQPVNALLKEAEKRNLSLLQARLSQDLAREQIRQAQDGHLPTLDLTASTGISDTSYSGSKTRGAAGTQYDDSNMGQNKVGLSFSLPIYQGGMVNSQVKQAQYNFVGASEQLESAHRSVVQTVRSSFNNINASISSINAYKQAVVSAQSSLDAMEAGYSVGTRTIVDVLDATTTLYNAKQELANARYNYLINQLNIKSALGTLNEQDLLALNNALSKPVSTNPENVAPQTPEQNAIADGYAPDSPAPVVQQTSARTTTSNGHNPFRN
Experimental: The Nile red assay is adopted from Bohnert et al.[18]. An overnight culture of E. coli strain BW25113 is harvested and is resuspended in 20 mM potassium phosphate buffer (pH 7.0) containing 1 mM MgCl2 (PPB). The cells are adjusted to an A660 of 1.0 in PPB and aliquoted into glass tubes (2 ml each). Carbonylcyanide-m-chlorophenylhydrazone (CCCP; a protonophore that uncouples the electron transport chain and thus inhibits AcrB mediated efflux) is added to a final concentration of 10 µM (5 mM stock solution in 50% DMSO) and incubated for 15 minutes before adding the potential competitor at desired concentrations. Nile red is then added (stock solution of 5 mM in 10% dimethyl formamide-90% ethanol [vol/vol]) to a final concentration of 5 µM. The cell suspension is incubated at room temperature on a shaker for 3 hours. The cells are harvested and resuspended in 2 ml PPB in the presence of the competitor. The cell suspension is aliquoted in a fluorimeter cuvette, to which, 100 µl of 1 M Glucose is added to activate the electron transport chain. The rate of efflux is measured by Tefflux50, it is the time taken for 50% of Nile red to be effluxed out in presence of the compounds. The fluorescence is measured (Excitation 552 nm, Emission 636 nm) for 200 seconds.

Cytotoxicity, MTS assay = format: cell-based; conditions: human, A549 cells
Experimental: Cytotoxicity of the compounds was evaluated using MTS ((3-(4,5-dimethylthiazol-2-yl)-5-(3-carboxymethoxyphenyl)-2-(4-sulfophenyl)-2H-tetrazolium)) assay. A-549 cells were seeded in a 96 well plate at a density if 1.5 × 10^4 cells/well (100 μL). The cells were cultured in a CO2 incubator at 37 °C. A ten point concentration curve was set up starting from 5 nM to 100 μM with 3 fold dilution along with positive, negative and blank controls. The final concentration of DMSO was maintained at 1% throughout the plate. The compound treatment was carried out for 24 hrs. After incubation MTS reagent was added followed by 30 min incubation. The absorbance was measured at 490 nm. Data analysis was done using GraphPad Prism 6.0.

AcrB = biological target: T2, AcrB (Escherichia coli, UniProt P31224); test: Thermal shift assay with CPM dye; parameters: species or system E. coli; conditions: AcrB vs apo-protein; > 1°C implies binding
T2 construct: Full length acrB gene was amplified from E. coli; BW25113; His-tag (C); made in house; host or cells: E. coli C43(DE3), plasmid pET21a
T2 sequence (P31224 whole entry): as the sequence (P31224 whole entry) above
Experimental: AcrB overexpression protocol is adopted from Du. et al.[31]. Full length acrB gene was amplified from E. coli. BW25113 using Forward Primer 5′-[…]-3′ Reverse Primer 5′-[…]-3′ and cloned into the plasmid pET21a. The resultant plasmid that would express AcrB with a C-terminal His-tag is transformed into E. coli strain C43(DE3). The cells are induced on reaching A600 = 0.6 and transferred to 18 °C. The culture is harvested by centrifugation and re-suspended in Buffer A (100 mM Sodium Phosphate, 100 mM NaCl, 10 mM Imidazole, pH = 7.4, 100 µg/ml protease inhibitor cocktail from Roche and 5 U/ml DNase I and 5 mg/ml lysozyme). The cells are lysed at 15000 psi using Emulsiflex and centrifuged at 8000 g for removing cell debris. The membrane is isolated by centrifuging the resultant supernatant at 125000 g (see Coomassie stained SDS-PAGE of the purified protein Figure S9). Membrane solubilisation is done using Buffer A and 1.5% DDM (n-Dodecyl-β-D-Maltoside). Ni-NTA chromatography is used to purify the His-tagged protein and eluted in Buffer A with 300 mM Imidazole and 1.5% DDM.
The assay is performed according to protocols established elsewhere. CPM (N- [4-(7-diethylamino-4-methyl-3-coumarinyl) phenyl] maleimide) is a thiol specific fluorochrome (Excitation 387 nm, Emission 463 nm) and is non-fluorescent in an unbound state. The proteins, on thermal unfolding exposes cysteines allowing the CPM to bind and fluoresce. […]. The thermal denaturation is performed in a fluorimeter that is heated from 25 to 90 °C at a ramp rate of 1 °C/min. The Tm is calculated by analysing the melting profiles using Boltzmann Sigmoid function (GraphPad Prism) and ∆Tm is calculated by measuring the difference between the Tm of inhibitor bound protein and the apo-protein.

[2] = 1µM compound, time for 50% of Nile red to be effluxed, read for 200 seconds

| SMILES | MIC (E. coli ∆acrB JW0451-2) | MIC ∆acrB (E. coli ∆acrB JW0451-2) | Tefflux50 [1, 2] | Tefflux50 ([1]; 9µM compound) | Tefflux50 ([1]; 27µM compound) | Tefflux50 ([1]; 81µM compound) | Tefflux50 ([1]; 100µM compound) | Tefflux50 ([1]; 200µM compound) | Tefflux50 ([1]; 400µM compound) | Concentration of compound required for complete inhibition of Nile red efflux (Tefflux50 >200 seconds) [1] | IC50 at 24 h (Cytotoxicity, MTS assay) | ∆Tm (AcrB) |
| --- | --- | --- | --- | --- | --- | --- | --- | --- | --- | --- | --- | --- |
| COc1cc(-c2csc(NC(=O)c3ccc([N+](=O)[O-])s3)n2)ccc1Cl [compound 20, N-(4-(4-chloro-3-methoxyphenyl)thiazol-2-yl)-5-nitrothiophene-2-carboxamide] | 0.3 µg/mL (≈ 0.758 µM) | 0.3 | 69.24 s | 71.14 s | 72.65 s | 104.21 s | 200 s | 200 s | 200 s | 100 µM | 8.3 µg/mL (≈ 21 µM) | 1.86 °C and < 2 °C |
| O=C(Nc1nc(-c2ccc(F)cc2F)cs1)c1ccc([N+](=O)[O-])s1 [compound 12, N-(4-(2,4-difluorophenyl)thiazol-2-yl)-5-nitrothiophene-2-carboxamide] | 0.3 µg/mL (≈ 0.817 µM) | 0.3 | 66.41 s | 67.52 s | 67.98 s | 68.06 s | 68.17 s | 68.34 s | 68 s and 68.25 s | > 400 µM | 16.9 µg/mL (≈ 46 µM) | 0.68 °C |
| Cc1sc(NC(=O)c2ccc([N+](=O)[O-])s2)nc1-c1ccccc1 [compound 7, N-(5-Methyl-4-phenylthiazol-2-yl)-5-nitrothiophene-2-carboxamide] | 1.25 µg/mL (≈ 3.62 µM) |  | 88.05 s | 200 s | 200 s | 200 s | 200 s | 200 s | 200 s | 9 µM |  | 4.13 °C |
| O=C(Nc1nc(-c2ccc(F)cc2)cs1)c1ccc([N+](=O)[O-])s1 [compound 15, N-(4-(4-Fluorophenyl)thiazol-2-yl)-5-nitrothiophene-2-carboxamide] | 0.6 µg/mL (≈ 1.72 µM) | 0.6 | 61.52 s | 72.51 s | 81.24 s | 124.25 s | 200 s | 200 s | 200 s | 100 µM | 10.2 µg/mL (≈ 29.2 µM) | 1.75 °C and < 2 °C |
